From patent US8192962B2, “Processes for detecting toxic substances” (Daikin Industries, Ltd., priority 2001, dated 2012)

System: Unknown protein yeast genes
Experiment: DNA chip mRNA expression in yeast, unknown protein yeast genes (Table 1)
Assay type: cell-based, Saccharomyces cerevisiae S288C
Method: Yeast (Saccharomyces cerevisiae S288C (α SUC2mal mel gap2 CUP1)) were incubated at 25° C. on YPD medium (yeast extract 1%, polypepton 2%, glucose 2%). One of toxic chemical substances was added to the cells at logarithmic growth phase, and the cells were further incubated for two hours. Cells were cultured without any chemical substance in the same condition, and were used as control. Concentrations of the chemical substances were defined to inhibit the growth of the yeast but not lead to death.
After completion of the incubation, the culture was centrifuged to collect the cells. To the cells, sodium acetate buffer (50 mM sodium acetate, 10 mM EDTA, 1% SDS) was added, and the mixture was shaken at 65° C. for five minutes, followed by returning to room temperature, and obtaining the supernatant, of which the procedures were repeated two times. To the supernatant, ½ amount of a solution of phenol/chloroform was added, and the mixture was centrifuged to give a supernatant, which was added with an equal amount of chloroform, and the mixture was centrifuged to give a supernatant. To the supernatant, an equal amount of isopropanol containing 0.3 M sodium acetate was added, and the mixture was allowed to stand at room temperature for 30 minutes, after which the mixture was centrifuged to give a sediment of the whole RNAs. Seventy % ethanol was added to the sediment, and the mixture was again centrifuged to give a sediment, which was then dried and dissolved in water. mRNA was isolated from the whole RNAs as followings. In view of the fact that a poly A chain is attached to the 3′ terminus of mRNA, a polynucleotide having a poly T structure which was immobilized on the surface of latex beads was used to trap the mRNA, and then the mRNA was washed and eluted with spine column (Oligotex-dT30<Super>mRNA Purification Kit, Takara). Reverse transcription of the mRNA was conducted with a reverse transcriptase (Super Script II Reverse Transcriptase; catalogue No. 18064-014, GibcoBRL) using fluorescence-labeled nucleotides to give cDNAs that were introduced with Cy3-dUTP or Cy5-dUTP during the reverse transcription.
The labeled cDNAs were dissolved in TE buffer (10mM Tris-HCl/1 mM EDTA, pH8.0), and the solution was dropped on the DNA chip containing the whole genes of yeast (DNA Chip Research Inc. Japan) so that the cDNAs were hybridized on the DNA chip at 65° C. for over 12 hours. The fluoresces intensity of the DNA chip was read with a scanner, and the ratio relative to the fluorescence intensity resulting from the absence of chemical substance was estimated as the following, which is shown in Tables 1 to 9: […]

N#Cc1c(Cl)c(Cl)c(Cl)c(C#N)c1Cl [(9), 2,4,5,6-tetrachloro-1,3-benzenedicarbonitrile]
The level of expressed mRNA in the presence of chemical substance/The level of expressed mRNA in the absence of chemical substance (yeast gene YKL195W, incubated two hours with chemical substance): 3.6
The level of expressed mRNA in the presence of chemical substance/The level of expressed mRNA in the absence of chemical substance (yeast gene YKR018C): 3.9
The level of expressed mRNA in the presence of chemical substance/The level of expressed mRNA in the absence of chemical substance (yeast gene YKR046C): 3.9
The level of expressed mRNA in the presence of chemical substance/The level of expressed mRNA in the absence of chemical substance (yeast gene YKR091W, incubated two hours with chemical substance): 1.0
The level of expressed mRNA in the presence of chemical substance/The level of expressed mRNA in the absence of chemical substance (yeast gene YLR054C, incubated two hours with chemical substance): 2.7
The level of expressed mRNA in the presence of chemical substance/The level of expressed mRNA in the absence of chemical substance (yeast gene YLR149C, incubated two hours with chemical substance): 6.2
The level of expressed mRNA in the presence of chemical substance/The level of expressed mRNA in the absence of chemical substance (yeast gene YLR152C, incubated two hours with chemical substance): 0.6
The level of expressed mRNA in the presence of chemical substance/The level of expressed mRNA in the absence of chemical substance (yeast gene YLR161W): 1.0
The level of expressed mRNA in the presence of chemical substance/The level of expressed mRNA in the absence of chemical substance (yeast gene YLR177W): 1.0
The level of expressed mRNA in the presence of chemical substance/The level of expressed mRNA in the absence of chemical substance (yeast gene YLR194C, incubated two hours with chemical substance): 0.9
The level of expressed mRNA in the presence of chemical substance/The level of expressed mRNA in the absence of chemical substance (yeast gene YLR324W, incubated two hours with chemical substance): 3.1
The level of expressed mRNA in the presence of chemical substance/The level of expressed mRNA in the absence of chemical substance (yeast gene YLR338W): 7.9
The level of expressed mRNA in the presence of chemical substance/The level of expressed mRNA in the absence of chemical substance (yeast gene YLR346C): 8.6
The level of expressed mRNA in the presence of chemical substance/The level of expressed mRNA in the absence of chemical substance (yeast gene YLR350W, incubated two hours with chemical substance): 0.6
The level of expressed mRNA in the presence of chemical substance/The level of expressed mRNA in the absence of chemical substance (yeast gene YLR387C, incubated two hours with chemical substance): 7.8
The level of expressed mRNA in the presence of chemical substance/The level of expressed mRNA in the absence of chemical substance (yeast gene YLR460C): 13.9
The level of expressed mRNA in the presence of chemical substance/The level of expressed mRNA in the absence of chemical substance (yeast gene YML117W, incubated two hours with chemical substance): 1.0
The level of expressed mRNA in the presence of chemical substance/The level of expressed mRNA in the absence of chemical substance (yeast gene YMR009W, incubated two hours with chemical substance): 3.4
The level of expressed mRNA in the presence of chemical substance/The level of expressed mRNA in the absence of chemical substance (yeast gene YMR067C, incubated two hours with chemical substance): 4.0
The level of expressed mRNA in the presence of chemical substance/The level of expressed mRNA in the absence of chemical substance (yeast gene YMR090W): 16.7
The level of expressed mRNA in the presence of chemical substance/The level of expressed mRNA in the absence of chemical substance (yeast gene YMR097C, incubated two hours with chemical substance): 2.1
The level of expressed mRNA in the presence of chemical substance/The level of expressed mRNA in the absence of chemical substance (yeast gene YMR102C, incubated two hours with chemical substance): 1.7
The level of expressed mRNA in the presence of chemical substance/The level of expressed mRNA in the absence of chemical substance (yeast gene YMR107W, incubated two hours with chemical substance): 6.0
The level of expressed mRNA in the presence of chemical substance/The level of expressed mRNA in the absence of chemical substance (yeast gene YMR180C, incubated two hours with chemical substance): 1.8
The level of expressed mRNA in the presence of chemical substance/The level of expressed mRNA in the absence of chemical substance (yeast gene YMR184W, incubated two hours with chemical substance): 2.1
The level of expressed mRNA in the presence of chemical substance/The level of expressed mRNA in the absence of chemical substance (yeast gene YMR191W, incubated two hours with chemical substance): 2.2
The level of expressed mRNA in the presence of chemical substance/The level of expressed mRNA in the absence of chemical substance (yeast gene YMR251W): 3.1
The level of expressed mRNA in the presence of chemical substance/The level of expressed mRNA in the absence of chemical substance (yeast gene YMR295C, incubated two hours with chemical substance): 1.0
The level of expressed mRNA in the presence of chemical substance/The level of expressed mRNA in the absence of chemical substance (yeast gene YMR316W, incubated two hours with chemical substance): 2.1
The level of expressed mRNA in the presence of chemical substance/The level of expressed mRNA in the absence of chemical substance (yeast gene YNL044W, incubated two hours with chemical substance): 0.8
The level of expressed mRNA in the presence of chemical substance/The level of expressed mRNA in the absence of chemical substance (yeast gene YNL074C, incubated two hours with chemical substance): 1.5
The level of expressed mRNA in the presence of chemical substance/The level of expressed mRNA in the absence of chemical substance (yeast gene YNL092W, incubated two hours with chemical substance): 2.3
The level of expressed mRNA in the presence of chemical substance/The level of expressed mRNA in the absence of chemical substance (yeast gene YNL115C, incubated two hours with chemical substance): 2.6
The level of expressed mRNA in the presence of chemical substance/The level of expressed mRNA in the absence of chemical substance (yeast gene YNL156C, incubated two hours with chemical substance): 2.4
The level of expressed mRNA in the presence of chemical substance/The level of expressed mRNA in the absence of chemical substance (yeast gene YNL234W, incubated two hours with chemical substance): 2.6
The level of expressed mRNA in the presence of chemical substance/The level of expressed mRNA in the absence of chemical substance (yeast gene YNL281W, incubated two hours with chemical substance): 2.8
The level of expressed mRNA in the presence of chemical substance/The level of expressed mRNA in the absence of chemical substance (yeast gene YNL305C, incubated two hours with chemical substance): 2.9
The level of expressed mRNA in the presence of chemical substance/The level of expressed mRNA in the absence of chemical substance (yeast gene YNR068C, incubated two hours with chemical substance): 6.7
The level of expressed mRNA in the presence of chemical substance/The level of expressed mRNA in the absence of chemical substance (yeast gene YOL032W, incubated two hours with chemical substance): 4.5
The level of expressed mRNA in the presence of chemical substance/The level of expressed mRNA in the absence of chemical substance (yeast gene YOL036W, incubated two hours with chemical substance): 3.1
The level of expressed mRNA in the presence of chemical substance/The level of expressed mRNA in the absence of chemical substance (yeast gene YOL047C, incubated two hours with chemical substance): 0.6
The level of expressed mRNA in the presence of chemical substance/The level of expressed mRNA in the absence of chemical substance (yeast gene YOL071W, incubated two hours with chemical substance): 4.4
The level of expressed mRNA in the presence of chemical substance/The level of expressed mRNA in the absence of chemical substance (yeast gene YOL082W, incubated two hours with chemical substance): 3.4
The level of expressed mRNA in the presence of chemical substance/The level of expressed mRNA in the absence of chemical substance (yeast gene YOL083W, incubated two hours with chemical substance): 2.7
The level of expressed mRNA in the presence of chemical substance/The level of expressed mRNA in the absence of chemical substance (yeast gene YOL117W, incubated two hours with chemical substance): 1.3
The level of expressed mRNA in the presence of chemical substance/The level of expressed mRNA in the absence of chemical substance (yeast gene YOL131W, incubated two hours with chemical substance): 8.4
The level of expressed mRNA in the presence of chemical substance/The level of expressed mRNA in the absence of chemical substance (yeast gene YOL150C): 10.8
The level of expressed mRNA in the presence of chemical substance/The level of expressed mRNA in the absence of chemical substance (yeast gene YOL162W, incubated two hours with chemical substance): 12.0
The level of expressed mRNA in the presence of chemical substance/The level of expressed mRNA in the absence of chemical substance (yeast gene YOR019W, incubated two hours with chemical substance): 3.5
The level of expressed mRNA in the presence of chemical substance/The level of expressed mRNA in the absence of chemical substance (yeast gene YOR161C): 1.0
The level of expressed mRNA in the presence of chemical substance/The level of expressed mRNA in the absence of chemical substance (yeast gene YOR197W, incubated two hours with chemical substance): 0.8
The level of expressed mRNA in the presence of chemical substance/The level of expressed mRNA in the absence of chemical substance (yeast gene YPL087W, incubated two hours with chemical substance): 1.0
The level of expressed mRNA in the presence of chemical substance/The level of expressed mRNA in the absence of chemical substance (yeast gene YPL150W): 3.1
The level of expressed mRNA in the presence of chemical substance/The level of expressed mRNA in the absence of chemical substance (yeast gene YPL196W, incubated two hours with chemical substance): 10.9
The level of expressed mRNA in the presence of chemical substance/The level of expressed mRNA in the absence of chemical substance (yeast gene YPL206C, incubated two hours with chemical substance): 1.7
The level of expressed mRNA in the presence of chemical substance/The level of expressed mRNA in the absence of chemical substance (yeast gene YPL222W, incubated two hours with chemical substance): 7.4
The level of expressed mRNA in the presence of chemical substance/The level of expressed mRNA in the absence of chemical substance (yeast gene YPL225W): 1.0
The level of expressed mRNA in the presence of chemical substance/The level of expressed mRNA in the absence of chemical substance (yeast gene YPR023C, incubated two hours with chemical substance): 4.4
The level of expressed mRNA in the presence of chemical substance/The level of expressed mRNA in the absence of chemical substance (yeast gene YPR151C, incubated two hours with chemical substance): 3.0
